≈ marks a conversion by molar mass, not a printed value.
Columns and labels:
[1] = Solubility and stability in tert-butanol and Kollidon-TBA vehicles by HPLC; assay type: physicochemical
Experimental: Salinosporamide A solubility was determined in 100% tert-butanol (TBA) and in TBA containing 3% (w/v) Kollidon 12 PF and 3% (w/v) Kollidon 17 PF, respectively. Both Kollidons can dissolve in TBA at approximately 4% (w/v). 3% Kollidon can serve as the bulking agent to support a lyophilization preparation. Salinosporamide A was added and saturated in the vehicles at ambient room temperature overnight. Salinosporamide A solutions were filtered and analyzed by HPLC to determine the solubility.

[2] = Salinosporamide A in-situ phase solubility and stability in H2O-TBA; assay type: physicochemical; details: for HPLC Assay (% Purity): room temp.
Experimental: Salinosporamide A in-situ phase solubility and stability were determined in 10, 20 and 30% H2O-TBA (v/v) solutions. Salinosporamide A was prepared at 2 mg/mL in TBA as a stock solution. HPLC water was spiked into the Salinosporamide A solution aliquot to make up the equivalent 10, 20 and 30% H2O-TBA solutions at room temperature. Each drug solution was mixed and immediately filtered. The filtrate was collected as time zero sample and analyzed by HPLC at real time to avoid drug degradation. The filtrate was subsequently sampled and filtered at 4, 24 and 48 hr to monitor drug stability at ambient room temperature.

[3] = Chemical stability of the API

C[C@@]12OC(=O)[C@]1([C@@H](O)[C@@H]1C=CCCC1)NC(=O)[C@@H]2CCCl [Salinosporamide A]
solubility ([1]; 3% Kollidon 12 PF-TBA): 4900 µg/mL (≈ 15.6 mM) | stability in solution ([1]; 3% Kollidon 12 PF-TBA and 3% Kollidon 17 PF-TBA, room temperature overnight): stable | solubility ([1]; 3% Kollidon 17 PF-TBA): 4200 µg/mL (≈ 13.4 mM) | solubility ([1]; 100% TBA, ambient room temperature): 2000 µg/mL (≈ 6.37 mM) | stability in solution ([1]; 100% TBA, ambient room temperature overnight): stable | bulk solution stability ([2]; 1 mg/mL in 10-30% H2O-TBA co-solvent systems, room temperature): stable | HPLC Assay (% Purity) ([2]; 10% H2O-TBA, 0 hr): 100.0% | HPLC Assay (% Purity) ([2]; 10% H2O-TBA, 4 hr): 99.5% | HPLC Assay (% Purity) ([2]; 10% H2O-TBA, 24 hr): 99.8% | HPLC Assay (% Purity) ([2]; 10% H2O-TBA, 48 hr): 99.7% | HPLC Assay (% Purity) ([2]; 20% H2O-TBA, 0 hr): 100.0% | HPLC Assay (% Purity) ([2]; 20% H2O-TBA, 4 hr): 99.8% | HPLC Assay (% Purity) ([2]; 20% H2O-TBA, 24 hr): 99.8% | HPLC Assay (% Purity) ([2]; 20% H2O-TBA, 48 hr): 99.7% | HPLC Assay (% Purity) ([2]; 30% H2O-TBA, 0 hr): 100.0% | HPLC Assay (% Purity) ([2]; 30% H2O-TBA, 4 hr): 99.8% | HPLC Assay (% Purity) ([2]; 30% H2O-TBA, 24 hr): 99.5% | HPLC Assay (% Purity) ([2]; 30% H2O-TBA, 48 hr): 99.3% | stability in aqueous solution ([3]; neutral and basic pH values): labile | time API is stable ([3]; stored at −20° C. desiccated): at least 12 months
